Data published in patent US8414660B2, “Haloferax volcanii laccase and variants and fragments thereof” (University of Florida Research Foundation, Inc., priority 2009, dated 2013).
Values joined by “and” are separate entries in the source; they are usually repeats but may differ in a detail not shown here. Equal entries are not always repeated. Where two headings read alike, the source gives them in different places.

How the values were obtained:
[1] = target: T1, LccA isolated from Hfx. volcanii SB01 (Haloferax volcanii, UniProt D4GPK6); assay: biochemical; details: for Inhibition of observed LccA activity: 0.1 to 1 mM; for inhibition at 10000 µM: read-out: Inhibition / reduction in LccA activity
T1 construct: made in house; host or cells: Haloferax volcanii SB01 (H26 carrying plasmid pJAM822), secreted into culture broth
T1 sequence (D4GPK6 32-579): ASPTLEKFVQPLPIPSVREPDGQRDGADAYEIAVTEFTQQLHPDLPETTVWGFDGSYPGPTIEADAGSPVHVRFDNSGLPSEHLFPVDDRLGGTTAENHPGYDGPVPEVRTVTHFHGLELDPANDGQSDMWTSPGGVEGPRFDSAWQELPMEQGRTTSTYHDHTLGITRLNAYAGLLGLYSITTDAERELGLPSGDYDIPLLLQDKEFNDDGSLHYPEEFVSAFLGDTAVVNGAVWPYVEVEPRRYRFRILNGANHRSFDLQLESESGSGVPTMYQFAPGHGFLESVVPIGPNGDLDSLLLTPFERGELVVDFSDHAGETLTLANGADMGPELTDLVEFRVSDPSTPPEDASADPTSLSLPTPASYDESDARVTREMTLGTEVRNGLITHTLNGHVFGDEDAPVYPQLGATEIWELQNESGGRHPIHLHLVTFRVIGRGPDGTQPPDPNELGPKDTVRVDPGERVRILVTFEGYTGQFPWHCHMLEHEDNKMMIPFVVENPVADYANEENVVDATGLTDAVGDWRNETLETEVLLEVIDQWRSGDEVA

[2] = literature; cited from earlier work
[3] = Laccase activity assay, oxidation of SGZ (syringaldazine)
Experimental: LccA (51 μg·ml^−1) activity was assayed at different temperatures (22° to 70° C.) in T buffer with 185 mM NaCl using SGZ (1 mM) as the substrate. […] LccA activity was assayed with SGZ (●) from pH 6 to 11 and with ABTS (◯) from pH 3 to 8 at 45° C. using following buffers: 100 mM sodium acetate for pH 3 to 6, 25 mM Tris-HCl for pH 7 to 10, and 25 mM glycine-NaOH for pH 11. Activity is expressed as percent relative to oxidation of ABTS at pH 6. […] Purified enzyme (50.6 μg·ml^−1) was pre-incubated in T buffer supplemented with 185 mM NaCl at temperatures from 37° to 70° C. for up to 60 h, as indicated. […] Activity is presented as percent relative to incubation on ice (37° C. (●), 45° C. (▪), 50° C. (▴), 55° C. (♦), 60° C. (◯), 65° C. (□) and 70° C. (Δ)); FIG. 6E-Salt tolerance of LccA protein. Purified enzyme (16.5 μg·ml^−1) was pre-incubated for 30 min in T buffer at pH 8.4 supplemented with different concentrations of NaCl (0 to 1.4 M) as indicated. Samples were diluted to a final concentration 4.12 μg·ml^−1 protein and 185 mM NaCl in T buffer and assayed for SGZ oxidizing activity under standard conditions. Residual activity was calculated as percent relative to incubation at 185 mM NaCl. […] Enzyme (7.5 μg·ml^−1) was incubated in T buffer with 185 mM NaCl in the presence and absence of 25% (v/v) solvent (DMSO, DMF, ethanol and methanol) at room temperature for 90 min (white bar), 3 h (grey bar) and 24 h (black bar). […] Activity is calculated as percent relative to incubation without solvent.
Enzyme activity was determined by change in absorbance, in triplicate, by UV/Visible-spectroscopy using a BioTek Synergy HT multi-detection microplate reader with a 96-well plate. Oxidation of substrate was monitored by absorbance increase (ABTS at 420 nm with ε=36,000 M^−1 cm^−1; SGZ at 526 nm with ε=65,000 M^−1 cm^−1; DMP at 468 nm with ε=49,000 M^−1 cm^−1; guaiacol at 436 nm with ε=26,600 M^−1 cm^−1; ferrous ammonium sulfate at 315 nm with ε=2,200 M^−1 cm^−1) or decrease (bilirubin at 440 nm with ε=56,300 M^−1 cm^−1). Standard assay conditions were 185 mM NaCl at 45° C. with the following buffers and substrate concentrations: 100 mM sodium acetate buffer at pH 6.0 for ABTS (at 5 mM), DMP (at 2 mM) and guaiacol (at 5 mM); 25 mM Tris-HCl buffer at pH 8.4 for SGZ (at 1 mM); and 200 mM Tris-HCl buffer at pH 8.4 for bilirubin (0.45 mM). Copper sulfate (1 mM) was included for assay of DMP oxidation. Oxidation of ferrous ammonium sulphate (1 mM) was monitored at 315 nm (ε=2,200 M^−1 cm^−1) with and without salt (185 mM NaCl) in 100 mM MES (morpholineethanesulfonic acid) buffer at pH 5 as well as 25 mM Tris-HCl buffer at pH 7.0 and 8.4. One unit of enzyme activity is defined as the amount of enzyme that oxidizes 1 μmol of substrate per min at standard conditions. […] Kinetic parameters (Km, Vmax, and kcat) were determined using the Michaelis-Menten equation. […] All assays and protein purifications were performed at least in triplicate.
To further evaluate the catalytic properties of LccA, the temperature, pH and salt optima of the purified enzyme were determined using SGZ and/or ABTS as substrates.

[4] = comparator laccase-like enzymes, literature, cited from earlier work
[5] = comparator laccase-like enzymes, literature, cited from earlier work; remark: listed apart in the source
[6] = compound 0.1 mM, 10 min at 45° C.
[7] = compound 1 mM, 10 min at 45° C.
[8] = compound 10 mM, 10 min at 45° C.

O[C@@H](CS)[C@@H](O)CS (racemic) [DL-Dithiothretol]
Inhibition of observed LccA activity [1]: strong inhibitors
Relative Activity of LccA ([1]; compound 0.01 mM, 10 min at 45° C.): 90.5 ± 5.5%
Relative Activity of LccA [1, 6]: u.d.
Relative Activity of LccA [1, 7]: u.d.

c1cnc2c(c1)ccc1cccnc12 [1,10-Phenanthroline]
inhibition at 10000 µM ([1]; 10 mM): 90%
Relative Activity of LccA [1, 7]: 85.3 ± 3.4%
Relative Activity of LccA [1, 8]: 10.9 ± 3.9%

c1ccc(-c2ccccn2)nc1 [2,2-Dipyridyl]
Inhibition / reduction in LccA activity ([1]; 10 mM): 25%
Relative Activity of LccA [1, 7]: 86.6 ± 3.3%
Relative Activity of LccA [1, 8]: 75.2 ± 2.3%

O=C(O)CN(CCN(CC(=O)O)CC(=O)O)CC(=O)O [EDTA]
Inhibitory activity toward LccA [1]: no inhibitory activity
Relative Activity of LccA [1]: 100.6 ± 1.8% and 106.3 ± 5.8% and 123.6 ± 3.2% and 123.7 ± 3.0%

N[C@@H](CS)C(=O)O [L-Cysteine]
Inhibition of observed LccA activity [1]: strong inhibitors
Relative Activity of LccA [1, 6]: 83.0 ± 3.7%
Relative Activity of LccA [1, 7]: u.d.^c

NC(N)=S [Thiourea]
inhibition at 10000 µM ([1]; 10 mM): 90%
Relative Activity of LccA [1, 7]: 96.5 ± 3.9%
Relative Activity of LccA [1, 8]: 9.5 ± 1.3%

McoA [reference compound]
Temperature optimum [2]: 70 °C

B1: LccA-StrepII: LccA with a C-terminal StrepII tag (-WSHPQFEK), purified from Hfx. volcanii SB01 (protein, UniProt D4GPK6 32-579, looked up)
Laccase: ASPTLEKFVQPLPIPSVREPDGQRDGADAYEIAVTEFTQQLHPDLPETTVWGFDGSYPGPTIEADAGSPVHVRFDNSGLPSEHLFPVDDRLGGTTAENHPGYDGPVPEVRTVTHFHGLELDPANDGQSDMWTSPGGVEGPRFDSAWQELPMEQGRTTSTYHDHTLGITRLNAYAGLLGLYSITTDAERELGLPSGDYDIPLLLQDKEFNDDGSLHYPEEFVSAFLGDTAVVNGAVWPYVEVEPRRYRFRILNGANHRSFDLQLESESGSGVPTMYQFAPGHGFLESVVPIGPNGDLDSLLLTPFERGELVVDFSDHAGETLTLANGADMGPELTDLVEFRVSDPSTPPEDASADPTSLSLPTPASYDESDARVTREMTLGTEVRNGLITHTLNGHVFGDEDAPVYPQLGATEIWELQNESGGRHPIHLHLVTFRVIGRGPDGTQPPDPNELGPKDTVRVDPGERVRILVTFEGYTGQFPWHCHMLEHEDNKMMIPFVVENPVADYANEENVVDATGLTDAVGDWRNETLETEVLLEVIDQWRSGDEVA
modifications: C-terminal StrepII tag
Specific activity lower than US02 purified LccA ([3]; SGZ oxidation): over 20 fold
Specific activity, SGZ oxidation ([3]; purified from culture broth of Hfx. volcanii SB01 (C-terminal StrepII tag), final MonoQ 10/10 pH 8.4): 1.3 U·mg^−1

B2: CotA, Bacillus subtilis: Bacillus subtilis spore coat protein A with laccase activity (Martins et al., 2002) (protein, UniProt P07788 1-513, looked up)
Laccase: MTLEKFVDALPIPDTLKPVQQSKEKTYYEVTMEECTHQLHRDLPPTRLWGYNGLFPGPTIEVKRNENVYVKWMNNLPSTHFLPIDHTIHHSDSQHEEPEVKTVVHLHGGVTPDDSDGYPEAWFSKDFEQTGPYFKREVYHYPNQQRGAILWYHDHAMALTRLNVYAGLVGAYIIHDPKEKRLKLPSDEYDVPLLITDRTINEDGSLFYPSAPENPSPSLPNPSIVPAFCGETILVNGKVWPYLEVEPRKYRFRVINASNTRTYNLSLDNGGDFIQIGSDGGLLPRSVKLNSFSLAPAERYDIIIDFTAYEGESIILANSAGCGGDVNPETDANIMQFRVTKPLAQKDESRKPKYLASYPSVQHERIQNIRTLKLAGTQDEYGRPVLLLNNKRWHDPVTETPKVGTTEIWSIINPTRGTHPIHLHLVSFRVLDRRPFDIARYQESGELSYTGPAVPPPPSEKGWKDTIQAHAGEVLRIAATFGPYSGRYVWHCHILEHEDYDMMRPMDITDPHK
kcat, SGZ [4]: 3.7 s⁻¹
Km ([4]; read-out: Km, SGZ): 26 µM
Temperature optimum [2]: 75 °C
kcat, ABTS [5]: 16.8 s⁻¹
Km ([5]; read-out: Km, ABTS): 106 µM
